One compound from publication PMC13110849 (ACS chemical neuroscience, 2023) can be followed below.

The experiment has as its target RhoA•GMPPNP binding to ROCK1 (Homo sapiens, UniProt P61586). Description: AlphaScreen assay of RhoA•GMPPNP binding to ROCK1. The following applies: varying concentration, 24 h, 4 °C. A general note: In Alpha technology, singlet oxygen from a donor bead excites a nearby acceptor bead.

Sequence of RhoA•GMPPNP binding to ROCK1 (P61586 whole entry): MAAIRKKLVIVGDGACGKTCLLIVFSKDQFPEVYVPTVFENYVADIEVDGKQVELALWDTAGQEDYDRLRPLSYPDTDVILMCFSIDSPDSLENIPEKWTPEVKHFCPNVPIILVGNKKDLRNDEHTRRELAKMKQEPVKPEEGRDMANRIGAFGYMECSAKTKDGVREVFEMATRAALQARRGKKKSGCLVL

In the case of `Nc1nc2c(ncn2[C@@H]2O[C@H](COP(=O)(O)OP(=O)(O)O)[C@@H](O)[C@H]2O)c(=O)[nH]1` [GDP], the “Inhibition of RhoA•GMPPNP binding to ROCK1” value is recorded as “successfully inhibited”.
